Data as given in article PMC2137936, “Molecular Analysis of Thymopentin Binding to HLA-DR Molecules” (PLoS ONE, 2007).
No end group written: not given here.

Legend:
[1] = tested on: EBV-transformed B cells expressing HLA-DR; assay: Cellular peptide loading assay (CLSM uptake); type: cell-based, human; settings: 10 µM, 2 h at 37°C, excitation 488 nm
Procedure: To validate the ability of FITC-labeled TP5 to load on EBV-transformed B cells expressing HLA-DR, a qualitative CLSM assay was used to examine the fluorescent signal of EBV-transformed B cells. The surface fluorescence was hardly observed from the cells in the absence of FITC-labeled TP5 at the excitation of 488 nm (Fig. 1A).
We harvested 3×10^5 cells, washed twice with phosphate-buffered saline (PBS) buffer (pH 7.4) supplemented with 0.1% BSA and 0.05% NaN3. Ten µM FITC- labeled TP5 was added to the treated cells in PBS (pH 7.4) containing 1% BSA (binding buffer), then incubated for 2 h at 37°C. Thereafter, the cells were washed twice and resuspended in 500 µl PBS, followed by CLSM analysis using Leica Microsystems (TCS SP2, Heidelberg, Germany).

[2] = tested on: HLA-DR on the surface of EBV-transformed B cells; assay: Direct binding of FITC-labeled TP5 to EBV-transformed B cells (flow cytometry); set-up: species or system human
Procedure: Therefore, a quantitative flow cytometric assay was used to get a better insight into the binding affinity of TP5 to HLA-DR on the surface of EBV-transformed B cells. […] Simultaneously, a correlation with R^2 = 0.9903 and a slope of 0.01311 were obtained. We then compared the specific binding of FITC-labeled TP5 to HLA-DR.
EBV-transformed B cells expressing HLA-DR molecules were maintained in RPMI 1640 containing 2 mM L-glutamine (HyClone Laboratories, UT, USA) supplemented with 10% standard FBS (HyClone Laboratories, UT, USA) at 37°C and in 5% CO2. Expression of HLA-DR was verified using mAb-DR L243 labeled with FITC (Pharmingen, San Diego, USA), by incubation for 45 min on ice followed by CLSM and FCM.
EBV-transformed B cells (3×10^5 per sample) were incubated with various concentrations of FITC-labeled TP5 in binding buffer for 2 h at 37°C. Thereafter, the cells were washed twice and resuspended in 500 µl PBS, followed by flow cytometric analysis using a FACSCan analyzer (Becton Dickinson Immunochemical Systems, Mountain View, USA). A total of ten thousand events were acquired for each sample. The MFI was used to evaluate the binding ability of FITC-labeled TP5 to APC.

## FITC-labeled TP5: TP5 conjugated with fluorescein isothiocyanate (FITC) (RKDVY; also: FITC label, position not given here)
[1]
  surface fluorescence of cells (uptake): strong surface fluorescence
[2]; flow cytometry histogram of fluorescence intensities, EBV-transformed B cells (Fig. 4)
  cells stained above the background: 94%
[2]; flow cytometry, EBV-transformed B cells versus PBS alone (Fig. 4)
  increase in mean fluorescence intensity (MFI) above background: approximately 3 orders of magnitude
